Results: ChEMBL document CHEMBL5532661, “Discovery of a Novel Glucagon-like Peptide-1 (GLP-1) Analogue from Bullfrog and Investigation of Its Potential for Designing GLP-1-Based Multiagonists” (J Med Chem, 2024)
pEC50: −log10 of the molar value. Calls of active or inactive are those of the source. The calls are words filed in the database; no cut-off is given here. Numbered stars: 1 amine (or outer) side, 2 acyl side, 3 side chain; on linkers, the order of the positions; unused ones are H or OH. Side chains are listed from the residue outwards. Peptide text beside a SMILES is read from it. * marks the point of attachment. γGlu = O=C(O)[C@H](CCC(=O)[*:2])N[*:1]; Palmitoyl = CCCCCCCCCCCCCCCC(=O)*

Legend:
[1] = target: T1, Glucagon-like peptide 1 receptor (Homo sapiens, UniProt P43220); assay: Agonist activity at human GLP-1 receptor expressed in HEK293 cells assessed as cAMP level measured after 60 mins by HTRF based assay; type: functional, cell-based
Mus musculus [2] = assay: Reduction in feed intake in DIO mouse at 30 nmol/kg, sc treated twice a day measured after 21 days; type: functional, organism-based; settings: time 21.0 day
Mus musculus [3] = assay: Hypoglycemic effect in ICR mouse treated with 3 g/kg glucose assessed as reduction in blood glucose level at 30 nmol/kg, sc measured upto 120 mins pretreated with GLP-1R antagonist by OGTT; type: functional, organism-based
Mus musculus [4] = assay: Anorexigenic effect in sc dosed ICR mouse assessed as decrease in food intake measured upto 72 hrs by acute food intake study; type: functional, organism-based; settings: dose 10-100 nmol/kg
[5] = target: T1, Glucagon-like peptide 1 receptor; assay: Potency index, ratio of Semaglutide EC50 to test compound EC50 for agonist activity at human GLP-1 receptor expressed in HEK293 cells assessed as cAMP level measured after 60 mins by HTRF based assay; type: functional, cell-based; settings: filed as agonist
Mus musculus [6] = assay: Hypoglycemic effect in ICR mouse treated with 3 g/kg glucose assessed as reduction in blood glucose level at 100 nmol/kg, sc measured upto 120 mins by acute glucose lowering test; type: functional, organism-based
Mus musculus [7] = assay: Reduction in serum AST level in DIO mouse at 30 nmol/kg, sc treated twice a day measured after 21 days; type: functional, organism-based; settings: time 21.0 day
Mus musculus [8] = assay: Antihyperglycemic effect in DIO mouse assessed as prolonged antihyperglycemic duration by measuring blood glucose at 100 nmol/kg, sc; type: functional, organism-based
[9] = target: T2, Glucagon-like peptide 1 receptor (Mus musculus) (UniProt O35659); assay: Agonist activity at mouse GLP-1 receptor expressed in HEK293 cells assessed as cAMP level measured after 60 mins by HTRF based assay; type: functional, cell-based; settings: filed as agonist
T2 sequence (whole entry): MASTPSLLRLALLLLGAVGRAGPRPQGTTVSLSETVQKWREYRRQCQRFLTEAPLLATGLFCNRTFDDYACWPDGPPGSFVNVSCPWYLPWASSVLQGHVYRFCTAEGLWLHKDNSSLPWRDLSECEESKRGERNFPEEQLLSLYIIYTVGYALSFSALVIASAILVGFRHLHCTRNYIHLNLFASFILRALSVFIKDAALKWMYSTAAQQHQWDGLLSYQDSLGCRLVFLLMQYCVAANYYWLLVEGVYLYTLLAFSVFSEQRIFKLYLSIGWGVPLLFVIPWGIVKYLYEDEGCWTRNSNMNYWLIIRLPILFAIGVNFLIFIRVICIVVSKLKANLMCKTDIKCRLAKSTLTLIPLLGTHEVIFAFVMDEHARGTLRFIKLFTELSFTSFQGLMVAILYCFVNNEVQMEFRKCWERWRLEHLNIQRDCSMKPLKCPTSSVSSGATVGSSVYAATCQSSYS

Mus musculus [10] = assay: Reduction in body weight in DIO mouse at 30 nmol/kg, sc treated twice a day measured after 21 days; type: functional; parameters: scale not given: the % may be the effect or the level left; settings: time 21 day
Glucagon receptor [11] = target: T3, Glucagon receptor (Homo sapiens, UniProt P47871); assay: Agonist activity at human GCGR expressed in HEK293 cells assessed as cAMP level by measuring relative percent (glucagon EC50/compound EC50) measured after 60 mins by HTRF based assay relative to glucagon; type: functional, cell-based; settings: filed as agonist
Mus musculus [12] = assay: Anorexigenic effect in ICR mouse assessed as decrease in food intake at 30 nmol/kg, sc measured at 48 hrs by acute food intake study; type: functional, organism-based
Mus musculus [13] = assay: Reduction in serum triglyceride in DIO mouse at 30 nmol/kg, sc treated twice a day measured after 21 days; type: functional, organism-based; settings: time 21.0 day
[14] = target: T2, Glucagon-like peptide 1 receptor (Mus musculus); assay: Potency index, ratio of GLP-1 EC50 to test compound EC50 for agonist activity at mouse GLP-1 receptor expressed in HEK293 cells assessed as cAMP level measured after 60 mins by HTRF based assay; type: functional, cell-based; settings: filed as agonist
Mus musculus [15] = assay: Reduction in serum ALT level in DIO mouse at 30 nmol/kg, sc treated twice a day measured after 21 days; type: functional, organism-based; settings: time 21.0 day
Mus musculus [16] = assay: Reduction in hepatic lipid content in DIO mouse at 30 nmol/kg, sc treated twice a day measured after 21 days by H and E staining based assay; type: functional, organism-based; settings: time 21.0 day
Mus musculus [17] = assay: Anorexigenic effect in ICR mouse assessed as decrease in food intake at 30 nmol/kg, sc measured upto 72 hrs by acute food intake study; type: functional, organism-based
Mus musculus [18] = assay: Antihyperglycemic effect in DIO mouse assessed as antihyperglycemic duration by measuring blood glucose at 30 nmol/kg, sc administered twice daily measured after 72 hrs by hypoglycemic duration assay; type: functional, organism-based
Glucagon receptor [19] = target: T3, Glucagon receptor; assay: Potency index, ratio of glucagon EC50 to test compound EC50 for agonist activity at human GCGR expressed in HEK293 cells assessed as cAMP level measured after 60 mins by HTRF based assay; type: functional, cell-based; settings: filed as agonist
Mus musculus [20] = assay: Reduction in total fat mass in DIO mouse at 30 nmol/kg, sc treated twice a day measured after 21 days; type: functional, organism-based; settings: time 21.0 day
Glucagon receptor [21] = target: T3, Glucagon receptor; assay: Agonist activity at human GCGR expressed in HEK293 cells assessed as cAMP level measured after 60 mins by HTRF based assay; type: functional, cell-based
Mus musculus [22] = assay: Anorexigenic effect in ICR mouse assessed as decrease in food intake at 10 nmol/kg, sc measured upto 72 hrs by acute food intake study; type: functional, organism-based
Mus musculus [23] = assay: Antihyperglycemic effect in DIO mouse assessed as antihyperglycemic duration by measuring blood glucose at 30 nmol/kg, sc measured after 12 to 24 hrs by hypoglycemic duration assay; type: functional, organism-based; settings: time 12-24 hrs
[24] = target: T1, Glucagon-like peptide 1 receptor; assay: Agonist activity at human GLP-1 receptor expressed in HEK293 cells assessed as cAMP level by measuring relative percent (GLP-1 EC50/compound EC50) measured after 60 mins by HTRF based assay relative to GLP-1; type: functional, cell-based; settings: filed as agonist
Mus musculus [25] = assay: Hypoglycemic effect in ICR mouse treated with 3 g/kg glucose assessed as reduction in blood glucose level at 10 nmol/kg, sc measured upto 120 mins by acute glucose lowering test; type: functional, organism-based
Mus musculus [26] = assay: Reduction in blood glucose level in non-fasting DIO mouse at 30 nmol/kg, sc treated twice a day measured after 21 days by glucose tolerance test; type: functional, organism-based; settings: time 21.0 day
[27] = target: Glucagon receptor (Mus musculus) (UniProt Q61606); assay: Agonist activity at mouse GCGR receptor expressed in HEK293 cells assessed as cAMP level measured after 60 mins by HTRF based assay; type: functional, cell-based; settings: filed as agonist
Mus musculus [28] = assay: Reduction in total cholesterol in DIO mouse at 30 nmol/kg, sc treated twice a day measured after 21 days; type: functional, organism-based; settings: time 21.0 day

T3 sequence (P47871 whole entry): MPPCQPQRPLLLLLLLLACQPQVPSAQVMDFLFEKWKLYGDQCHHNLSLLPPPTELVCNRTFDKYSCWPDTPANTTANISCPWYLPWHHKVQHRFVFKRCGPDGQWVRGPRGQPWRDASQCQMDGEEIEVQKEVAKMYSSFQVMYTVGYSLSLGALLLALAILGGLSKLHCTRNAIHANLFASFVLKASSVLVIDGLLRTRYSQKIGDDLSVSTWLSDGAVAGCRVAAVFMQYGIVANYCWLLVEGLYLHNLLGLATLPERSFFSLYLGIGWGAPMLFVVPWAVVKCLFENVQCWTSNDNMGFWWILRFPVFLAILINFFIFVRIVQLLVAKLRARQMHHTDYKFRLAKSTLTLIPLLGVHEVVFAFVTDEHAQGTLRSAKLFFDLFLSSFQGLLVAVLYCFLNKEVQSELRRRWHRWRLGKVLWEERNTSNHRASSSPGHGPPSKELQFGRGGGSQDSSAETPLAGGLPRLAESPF
T1 sequence (P43220 whole entry): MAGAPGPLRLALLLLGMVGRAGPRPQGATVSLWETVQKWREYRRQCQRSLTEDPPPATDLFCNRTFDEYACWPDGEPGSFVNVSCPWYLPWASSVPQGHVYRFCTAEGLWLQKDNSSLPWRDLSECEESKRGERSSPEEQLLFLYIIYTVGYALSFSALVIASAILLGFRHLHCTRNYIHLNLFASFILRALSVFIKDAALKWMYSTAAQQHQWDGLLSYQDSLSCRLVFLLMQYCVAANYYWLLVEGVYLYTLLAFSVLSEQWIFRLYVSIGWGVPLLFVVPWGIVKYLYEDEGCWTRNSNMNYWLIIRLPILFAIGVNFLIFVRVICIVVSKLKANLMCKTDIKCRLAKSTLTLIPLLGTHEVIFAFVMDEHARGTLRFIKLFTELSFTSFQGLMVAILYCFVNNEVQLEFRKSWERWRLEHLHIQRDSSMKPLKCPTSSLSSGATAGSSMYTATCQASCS
Chain of Glucagon receptor (Mus musculus) (Q61606 whole entry): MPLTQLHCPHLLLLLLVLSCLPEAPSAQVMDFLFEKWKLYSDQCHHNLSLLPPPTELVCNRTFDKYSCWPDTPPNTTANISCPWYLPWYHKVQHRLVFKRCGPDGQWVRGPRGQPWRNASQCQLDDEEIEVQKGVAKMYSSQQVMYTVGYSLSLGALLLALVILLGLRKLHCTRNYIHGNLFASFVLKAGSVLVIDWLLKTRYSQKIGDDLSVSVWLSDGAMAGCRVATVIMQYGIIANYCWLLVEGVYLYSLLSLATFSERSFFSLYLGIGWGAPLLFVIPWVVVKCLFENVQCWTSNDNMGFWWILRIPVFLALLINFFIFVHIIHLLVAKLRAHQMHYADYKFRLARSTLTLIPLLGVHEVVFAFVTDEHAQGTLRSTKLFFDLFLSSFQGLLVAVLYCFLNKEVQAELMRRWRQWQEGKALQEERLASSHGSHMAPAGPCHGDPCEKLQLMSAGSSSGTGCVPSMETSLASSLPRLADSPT

## CCCCCCCCCCCCCCCC(=O)N[C@@H](CCC(=O)NCCCC[C@H](NC(=O)[C@H](Cc1ccc(O)cc1)NC(=O)[C@H](CCCCN)NC(=O)[C@H](CO)NC(=O)[C@H](CCSC)NC(=O)[C@H](CC(=O)O)NC(=O)[C@H](CO)NC(=O)[C@@H](NC(=O)[C@H](Cc1ccccc1)NC(=O)[C@@H](NC(=O)CNC(=O)[C@H](CCC(N)=O)NC(=O)[C@H](CO)NC(=O)[C@@H](N)Cc1c[nH]cn1)[C@@H](C)O)[C@@H](C)O)C(=O)N[C@@H](CC(=O)O)C(=O)N[C@@H](CO)C(=O)N[C@@H](CCCNC(=N)N)C(=O)N[C@@H](CCCNC(=N)N)C(=O)N[C@@H](C)C(=O)N[C@@H](CCC(N)=O)C(=O)N[C@@H](CC(=O)O)C(=O)N[C@@H](Cc1ccccc1)C(=O)N[C@H](C(=O)N[C@@H](CC(=O)O)C(=O)N[C@@H](Cc1c[nH]c2ccccc12)C(=O)N[C@@H](CC(C)C)C(=O)N[C@@H](CCCCN)C(=O)N[C@@H](CC(N)=O)C(=O)NCC(=O)NCC(=O)N1CCC[C@H]1C(=O)N[C@@H](CO)C(=O)N[C@@H](CO)C(=O)NCC(=O)N[C@@H](C)C(=O)N1CCC[C@H]1C(=O)N1CCC[C@H]1C(=O)N1CCC[C@H]1C(=O)N[C@@H](CO)C(N)=O)C(C)C)C(=O)O (H-HSQGTFTSDMSKYK([γGlu-Palmitoyl])DSRRAQDFVDWLKNGGPSSGAPPPS-NH2)
[1]
  pEC50: 10.96
Mus musculus [2]
  Activity: Active
Mus musculus [3]
  Activity: inactive
Mus musculus [4]
  Activity: Dose-Dependent Effect
[5]
  Ratio EC50: 3
Mus musculus [6]
  Activity: Active
Mus musculus [7]
  Activity: Active
Mus musculus [8]
  Activity: Active
[9]
  Activity: Active
Mus musculus [10]
  Activity: 30.6%
Glucagon receptor [11]
  Activity: 341%
Mus musculus [12]
  Activity: Active
Mus musculus [13]
  Activity: Active
[14]
  Ratio EC50: 3
Mus musculus [15]
  Activity: Active
Mus musculus [16]
  Activity: Active
Mus musculus [17]
  Activity: Active
Mus musculus [18]
  Activity: Active
Glucagon receptor [19]
  Ratio EC50: 3
Mus musculus [20]
  Activity: Active
Glucagon receptor [21]
  pEC50: 10.57
Mus musculus [22]
  Activity: Active
Mus musculus [23]
  Activity: Active
[24]
  Activity: 482%
Mus musculus [25]
  Activity: Active
Mus musculus [26]
  Activity: Active
[27]
  Activity: Active
Mus musculus [28]
  Activity: Active
